Assay results as given in US20230398130A1, “METHODS AND COMPOSITIONS FOR DIFFERENTIATING STEM CELLS” (Massachusetts Institute of Technology, priority 2020, published 2023).
Structures can show the parent of a compound that is named as a salt.

System: ISC-enriched organoids
Assay: Primary screen, 384-well 2.5-D organoid differentiation (ENR+CD, 6 days, Target Selective Inhibitor Library, vs whole-plate median): ATP (CellTiter-Glo 3D, CTG)
Conditions: for Z.CTG: standard z score of FC

Q: Which “Z.CTG (standard z score)” value (Dose 0.08 uM, primary screen) does the source give for `O=C(NC(Cc1cc(=O)[nH]c2ccccc12)C(=O)O)c1ccc(Cl)cc1` (stereo not shown) [Rebamipide] here?
A: −0.612

Q: What about the “Z.CTG (standard z score)” value (Dose 0.40 uM, primary screen) of the same molecule?
A: −1.217

Q: And the “Z.CTG (standard z score)” value (Dose 2.00 uM, primary screen)?
A: −0.484

Q: What about the “Z.CTG (standard z score)” value (Dose 10.00 uM, primary screen) of the same molecule?
A: −0.672

Q: `CN1CCN(c2nc(C3=C(c4c[nH]c5ccccc45)C(=O)NC3=O)c3ccccc3n2)CC1` [Sotrastaurin] was tested. Which “Z.CTG (standard z score)” value (Dose 0.08 uM, primary screen) did it give?
A: 0.024

Q: And the “Z.CTG (standard z score)” value (Dose 0.40 uM, primary screen)?
A: −0.286

Q: What about the “Z.CTG (standard z score)” value (Dose 2.00 uM, primary screen) of the same molecule?
A: −0.650

Q: And the “Z.CTG (standard z score)” value (Dose 10.00 uM, primary screen)?
A: −0.578

Q: Which “Z.CTG (standard z score)” value (Dose 0.08 uM, primary screen) does the source give for `COc1cc2c(cc1OC)CN(CCc1ccc(NC(=O)c3cc(OC)c(OC)cc3NC(=O)c3cnc4ccccc4c3)cc1)CC2` [Tariquidar] here?
A: −0.280

Q: And the “Z.CTG (standard z score)” value (Dose 0.40 uM, primary screen)?
A: 0.128

Q: What about the “Z.CTG (standard z score)” value (Dose 2.00 uM, primary screen) of the same molecule?
A: 0.899

Q: And the “Z.CTG (standard z score)” value (Dose 10.00 uM, primary screen)?
A: 0.543

Q: With `COc1ccc([C@]2(C#N)CC[C@@H](C(=O)O)CC2)cc1OC1CCCC1` [Cilomilast] as the molecule, how does the Z.CTG (Dose 0.08 uM) read?
A: −0.799

Q: What about the Z.CTG (Dose 0.40 uM) of the same molecule?
A: −0.807

Q: What about the Z.CTG (Dose 2.00 uM) of the same molecule?
A: −0.562

Q: And the Z.CTG (Dose 10.00 uM)?
A: −0.458

Q: What does the source list for `COc1ccccc1N1CCN(CC(O)COc2cccc3ccccc23)CC1` (stereo not shown) [Naftopidil]?
A: Z.CTG (Dose 0.08 uM): −0.093; Z.CTG (Dose 0.40 uM): −0.384; Z.CTG (Dose 2.00 uM): −0.426; Z.CTG (Dose 10.00 uM): −0.316

Q: How did the Z.CTG (primary screen, dose 0.08 uM) turn out when `CCN[C@H]1CN(CCCOC)S(=O)(=O)c2sc(S(N)(=O)=O)cc21` [Brinzolamide] was run?
A: −0.017

Q: And the Z.CTG (primary screen, dose 2.00 uM)?
A: 0.282

Q: For `CCOC(=O)N1c2ccc(C(F)(F)F)cc2[C@@H](N(Cc2cc(C(F)(F)F)cc(C(F)(F)F)c2)C(=O)OC)C[C@H]1CC` [Torcetrapib], which “Z.CTG (standard z score)” value (dose 0.08 uM) is on record?
A: 0.677

Q: What about the “Z.CTG (standard z score)” value (dose 0.40 uM) of the same molecule?
A: 0.147

Q: What about the “Z.CTG (standard z score)” value (dose 2.00 uM) of the same molecule?
A: −0.289

Q: What about the “Z.CTG (standard z score)” value (dose 10.00 uM) of the same molecule?
A: −0.360

Q: For `COc1ccccc1OCCNCC(O)COc1cccc2[nH]c3ccccc3c12` (stereo not shown) [Carvedilol], which Z.CTG (Dose 0.08 uM) is on record?
A: 0.136

Q: What about the Z.CTG (Dose 0.40 uM) of the same molecule?
A: −0.034

Q: And the Z.CTG (Dose 2.00 uM)?
A: −0.360

Q: And the Z.CTG (Dose 10.00 uM)?
A: −0.577

Q: Which results are given for `Oc1ncnc2[nH]ncc12` [Allopurinol]?
A: Z.CTG (primary screen, dose 0.08 uM): 0.506; Z.CTG (primary screen, dose 0.40 uM): −0.234; Z.CTG (primary screen, dose 2.00 uM): −0.387; Z.CTG (primary screen, dose 10.00 uM): −1.085

Q: How did the “Z.CTG (standard z score)” value (dose 0.08 uM) turn out when `Nc1nc(N)c2nc(-c3ccccc3)c(N)nc2n1` [Triamterene] was run?
A: −0.070

Q: What about the “Z.CTG (standard z score)” value (dose 0.40 uM) of the same molecule?
A: −0.394

Q: And the “Z.CTG (standard z score)” value (dose 2.00 uM)?
A: −0.241

Q: What about the “Z.CTG (standard z score)” value (dose 10.00 uM) of the same molecule?
A: −1.103

Q: Which “Z.CTG (standard z score)” value (dose 0.08 uM) does the source give for `CC(C)OC(=O)C1=CN(C(=O)c2ccc(F)c(F)c2)CC(C)(C)c2c1[nH]c1ccccc21` [XL335] here?
A: 0.297

Q: What about the “Z.CTG (standard z score)” value (dose 0.40 uM) of the same molecule?
A: −0.615

Q: What about the “Z.CTG (standard z score)” value (dose 2.00 uM) of the same molecule?
A: −0.619

Q: And the “Z.CTG (standard z score)” value (dose 10.00 uM)?
A: −0.373

Q: `CC[C@@H]1C(=O)N(C)c2cnc(Nc3ccc(C(=O)NC4CCN(C)CC4)cc3OC)nc2N1C1CCCC1` [BI 2536] was tested. Which Z.CTG (primary screen, dose 0.08 uM) did it give?
A: 0.069

Q: And the Z.CTG (primary screen, dose 0.40 uM)?
A: −1.275

Q: What about the Z.CTG (primary screen, dose 2.00 uM) of the same molecule?
A: −1.220

Q: What about the Z.CTG (primary screen, dose 10.00 uM) of the same molecule?
A: −2.455

Q: Which results are given for `Cc1cc(OCCCS(C)(=O)=O)cc(C)c1-c1cccc(COc2ccc3c(c2)OC[C@H]3CC(=O)O)c1` [TAK-875]?
A: Z.CTG (standard z score) (Dose 0.08 uM, primary screen): 0.572; Z.CTG (standard z score) (Dose 0.40 uM, primary screen): −0.392; Z.CTG (standard z score) (Dose 2.00 uM, primary screen): −0.376; Z.CTG (standard z score) (Dose 10.00 uM, primary screen): −0.694

Q: For `CC(C)NCC(O)COc1cccc2ccccc12` (stereo not shown) [Propranolol HCl], which “Z.CTG (standard z score)” value (Dose 0.08 uM, primary screen) is on record?
A: 0.158

Q: And the “Z.CTG (standard z score)” value (Dose 0.40 uM, primary screen)?
A: 0.129

Q: What about the “Z.CTG (standard z score)” value (Dose 2.00 uM, primary screen) of the same molecule?
A: 0.279

Q: And the “Z.CTG (standard z score)” value (Dose 10.00 uM, primary screen)?
A: 0.400

Q: With `Cn1c(N2CCCCS2(=O)=O)nc(C(=O)NCc2ccc(F)cc2)c(O)c1=O` [BMS-707035] as the molecule, how does the Z.CTG (primary screen, dose 0.08 uM) read?
A: 0.759

Q: And the Z.CTG (primary screen, dose 0.40 uM)?
A: 0.568

Q: And the Z.CTG (primary screen, dose 2.00 uM)?
A: 0.667

Q: And the Z.CTG (primary screen, dose 10.00 uM)?
A: 0.330

Q: Which results are given for `CCCCCCCCCCCC1=C(O)C(=O)C=C(O)C1=O` [Embelin]?
A: Z.CTG (Dose 0.08 uM): −0.770; Z.CTG (Dose 0.40 uM): −1.728; Z.CTG (Dose 2.00 uM): −0.776; Z.CTG (Dose 10.00 uM): −1.720

Q: Which results are given for `CCOC(=O)C1=C(C)NC(C)=C(C(=O)OC)C1c1cccc(Cl)c1Cl` (stereo not shown) [Felodipine]?
A: Z.CTG (Dose 0.08 uM): −0.187; Z.CTG (Dose 0.40 uM): −0.763; Z.CTG (Dose 2.00 uM): 0.025; Z.CTG (Dose 10.00 uM): 0.078

Q: For `C=C[C@@]1(C)CC(=O)[C@]2(O)[C@@]3(C)[C@@H](O)CCC(C)(C)[C@@H]3[C@H](O)[C@H](OC(C)=O)[C@@]2(C)O1` [Forskolin], which Z.CTG (Dose 0.08 uM) is on record?
A: −0.508

Q: And the Z.CTG (Dose 0.40 uM)?
A: −0.418

Q: What about the Z.CTG (Dose 2.00 uM) of the same molecule?
A: −0.789

Q: And the Z.CTG (Dose 10.00 uM)?
A: −0.284

Q: What does the source list for `CC(C)n1c(/C=C/C(O)CC(O)CC(=O)O)c(-c2ccc(F)cc2)c2ccccc21` (stereo not shown) [Fluvastatin Sodium]?
A: Z.CTG (Dose 0.08 uM): −0.384; Z.CTG (Dose 0.40 uM): −1.151; Z.CTG (Dose 2.00 uM): −2.653; Z.CTG (Dose 10.00 uM): −4.206

Q: Which results are given for `O=c1cc(-c2ccc(O)cc2)oc2cc(O)cc(O)c12` [Apigenin]?
A: Z.CTG (primary screen, dose 0.08 uM): 0.588; Z.CTG (primary screen, dose 0.40 uM): 0.510; Z.CTG (primary screen, dose 2.00 uM): 0.753; Z.CTG (primary screen, dose 10.00 uM): 0.063

Q: `CCOC(=O)[C@H]1O[C@@H]1C(=O)N[C@@H](CC(C)C)C(=O)NCCC(C)C` [Aloxistatin] was tested. Which Z.CTG (primary screen, dose 0.08 uM) did it give?
A: −0.015

Q: What about the Z.CTG (primary screen, dose 0.40 uM) of the same molecule?
A: −0.014

Q: What about the Z.CTG (primary screen, dose 2.00 uM) of the same molecule?
A: −0.308

Q: What about the Z.CTG (primary screen, dose 10.00 uM) of the same molecule?
A: −0.511
